According to article PMC8413292, “Small-molecule polymerase inhibitor protects non-human primates from measles and reduces shedding” (Nature Communications, 2021):
Where “and” joins values, the source holds several entries; their conditions need not be identical. Equal entries are not always repeated.

Tests used:
[1] = tested on: MV/FrankfurtMain.DEU/17.11 (genotype D8); experiment: PBMC-associated viremia titers (limited dilution, TCID50/10^6 PBMCs); format: in vivo, squirrel monkeys (Saimiri sciureus); conditions: for Viral titers: individual animals
Method: White blood cell counts, viral load quantification in PBMCs, and quantification of neutralizing antibody titers were performed as follows: for white blood cell counts, blood was diluted 1:100 in 3% acetic acid and cells were counted using a Neubauer chamber. For viral load quantification in PBMCs, blood was centrifuged at 3000 rpm for 15 min and serum was frozen at −20 °C until further use. Red blood cell lysis was performed and the remaining PBMCs were counted using a Neubauer chamber. Viral titers in PBMCs were quantified in quadruplicates using limited dilution method and calculated as TCID50/10^6 PBMCs. Neutralizing antibody titers were quantified by incubating MeV with 2-fold serial dilutions of the respective serum for 20 min at room temperature in quadruplicates. Vero/hSLAM cells were added and incubated for 3 days at 37 °C. Neutralizing antibody titers are expressed as the reciprocal of the highest serum dilution showing no signs of infection. For virus titration from throat swabs, swabs were placed in 150 μl DMEM with 3% penicillin/streptomycin and the titer was quantified by limited dilution method.

[2] = Body weight of squirrel monkeys during the efficacy study; format: in vivo, squirrel monkeys (Saimiri sciureus); conditions: all animals throughout the study
Method: All animal experiments were carried out in compliance with the regulations of German animal protection laws and authorized by the Regierungspräsidium Darmstadt, Germany (Dezernat V54 – Veterinärwesen und Verbraucherschutz, Hilpertstrasse 31, 64295 Darmstadt). Adult male and female squirrel monkeys (Saimiri sciureus) were obtained from BioPRIM, 31450 Baziege, or CNRS 0846 Primatologie, 13790 Rousset, France. Each experimental group was housed in a separate room, and animals of the same sex were caged together within the respective groups. For the single-dose pharmacokinetic experiment, animals were anesthetized, and the drug was given through a stomach tube at a concentration of 50 mg/kg bodyweight. Blood samples were collected after 15, 30, and 60 min, and 2, 3, 6, and 24 h. For efficacy assessment, groups of 6 animals were left untreated or treated with 50 mg/kg of ERDRP-0519 twice daily for two weeks, starting either 12 h before or 3 or 7 days after intranasal infection with 10^6 TCID50 of MV/FrankfurtMain.DEU/17.11. Clinical signs, rectal temperature, and weight were recorded daily, and throat swabs and blood samples were collected before infection and twice weekly thereafter. On day 21 post-infection, the animals were euthanized, necropsied, and samples were collected for histological analysis.

Q: With `Cn1nc(C(F)(F)F)cc1C(=O)Nc1ccc(S(=O)(=O)N2CCCC[C@H]2CCN2CCOCC2)cc1` [ERDRP-0519] as the compound, how does the “effect on PBMC-associated virus replication” value ([1]; day 3 therapeutic administration) read?
A: Its value is “effectively suppressed virus replication”.

Q: What about the Viral titers ([1]; prophylactic group, day 3) of the same compound?
A: The Viral titers was 1.745 log10(TCID50/106 PBMCs).

Q: What about the Viral titers ([1]; prophylactic group, day 7) of the same compound?
A: Its Viral titers is 1.509 log10(TCID50/106 PBMCs) and 0 log10(TCID50/106 PBMCs).

Q: What about the Viral titers ([1]; prophylactic group, day 10) of the same compound?
A: The Viral titers was 1.807 log10(TCID50/106 PBMCs).

Q: And the Viral titers ([1]; prophylactic group, day 17)?
A: Its Viral titers is 0.7747 log10(TCID50/106 PBMCs).

Q: What about the Viral titers ([1]; prophylactic group, day 21) of the same compound?
A: The Viral titers was 2.352 log10(TCID50/106 PBMCs).

Q: And the “decrease of viremia titers on average compared to untreated animals” value ([1]; prophylactic treatment)?
A: The value was “up to 250 fold”.

Q: What about the “PBMC Titers, group mean (Mean 2)” value ([1]; prophylactic, Row 1 (1st of 7 time points)) of the same compound?
A: The value was 0.

Q: What about the “PBMC Titers, group mean (Mean 2)” value ([1]; prophylactic, Row 2 (2nd of 7 time points)) of the same compound?
A: Its value is 0.2908.

Q: And the “PBMC Titers, group mean (Mean 2)” value ([1]; prophylactic, Row 3 (3rd of 7 time points))?
A: Its value is 0.2514.

Q: What about the “PBMC Titers, group mean (Mean 2)” value ([1]; prophylactic, Row 4 (4th of 7 time points)) of the same compound?
A: The value was 0.3012.

Q: And the “PBMC Titers, group mean (Mean 2)” value ([1]; prophylactic, Row 5 (5th of 7 time points))?
A: The value was 0.

Q: And the “PBMC Titers, group mean (Mean 2)” value ([1]; prophylactic, Row 6 (6th of 7 time points))?
A: The value was 0.1283.

Q: And the “PBMC Titers, group mean (Mean 2)” value ([1]; prophylactic, Row 7 (7th of 7 time points))?
A: The value was 0.3917.

Q: What about the Viral titers ([1]; therapeutic (d3) group, day 3) of the same compound?
A: The Viral titers was 1.097 log10(TCID50/106 PBMCs) and 1.77 log10(TCID50/106 PBMCs).

Q: What about the Viral titers ([1]; therapeutic (d3) group, day 7) of the same compound?
A: Its Viral titers is 0.7905 log10(TCID50/106 PBMCs) and 1.004 log10(TCID50/106 PBMCs) and 2.281 log10(TCID50/106 PBMCs) and 0 log10(TCID50/106 PBMCs).

Q: And the Viral titers ([1]; therapeutic (d3) group, day 10)?
A: Its Viral titers is 1.35 log10(TCID50/106 PBMCs) and 0.8861 log10(TCID50/106 PBMCs) and 2.045 log10(TCID50/106 PBMCs).

Q: And the Viral titers ([1]; therapeutic (d3) group, day 14)?
A: The Viral titers was 0.7375 log10(TCID50/106 PBMCs).

Q: What about the “PBMC Titers, group mean (Mean 2)” value ([1]; therapeutic (d3), Row 1 (1st of 7 time points)) of the same compound?
A: The value was 0.

Q: What about the “PBMC Titers, group mean (Mean 2)” value ([1]; therapeutic (d3), Row 2 (2nd of 7 time points)) of the same compound?
A: Its value is 0.4783.

Q: What about the “PBMC Titers, group mean (Mean 2)” value ([1]; therapeutic (d3), Row 3 (3rd of 7 time points)) of the same compound?
A: Its value is 0.6785.

Q: And the “PBMC Titers, group mean (Mean 2)” value ([1]; therapeutic (d3), Row 4 (4th of 7 time points))?
A: The value was 0.7141.

Q: What about the “PBMC Titers, group mean (Mean 2)” value ([1]; therapeutic (d3), Row 5 (5th of 7 time points)) of the same compound?
A: Its value is 0.1233.

Q: What about the “PBMC Titers, group mean (Mean 2)” value ([1]; therapeutic (d3), Row 6 (6th of 7 time points)) of the same compound?
A: The value was 0.

Q: And the “PBMC Titers, group mean (Mean 2)” value ([1]; therapeutic (d3), Row 7 (7th of 7 time points))?
A: The value was 0.

Q: What about the Viral titers ([1]; therapeutic (d7) group, day 3) of the same compound?
A: The Viral titers was 0.6162 log10(TCID50/106 PBMCs) and 0.7122 log10(TCID50/106 PBMCs) and 0.8794 log10(TCID50/106 PBMCs) and 0.6642 log10(TCID50/106 PBMCs) and 1.712 log10(TCID50/106 PBMCs).

Q: What about the Viral titers ([1]; therapeutic (d7) group, day 7) of the same compound?
A: Its Viral titers is 2.108 log10(TCID50/106 PBMCs) (2×) and 1.9431 log10(TCID50/106 PBMCs) and 1.854 log10(TCID50/106 PBMCs) and 1.9914 log10(TCID50/106 PBMCs) and 1.699 log10(TCID50/106 PBMCs).

Q: And the Viral titers ([1]; therapeutic (d7) group, day 10)?
A: Its Viral titers is 2.513 log10(TCID50/106 PBMCs) and 2.092 log10(TCID50/106 PBMCs) and 2.1549 log10(TCID50/106 PBMCs) and 2.936 log10(TCID50/106 PBMCs) and 2.626 log10(TCID50/106 PBMCs) and 2.438 log10(TCID50/106 PBMCs).

Q: And the Viral titers ([1]; therapeutic (d7) group, day 14)?
A: The Viral titers was 0.7959 log10(TCID50/106 PBMCs) and 0.3979 log10(TCID50/106 PBMCs) and 1.735 log10(TCID50/106 PBMCs).

Q: What about the Viral titers ([1]; therapeutic (d7) group, day 17) of the same compound?
A: Its Viral titers is 1.174 log10(TCID50/106 PBMCs) and 0.6271 log10(TCID50/106 PBMCs).

Q: And the “PBMC Titers, group mean (Mean 2)” value ([1]; therapeutic (d7), Row 1 (1st of 7 time points))?
A: Its value is 0.

Q: What about the “PBMC Titers, group mean (Mean 2)” value ([1]; therapeutic (d7), Row 2 (2nd of 7 time points)) of the same compound?
A: The value was 0.7636.

Q: And the “PBMC Titers, group mean (Mean 2)” value ([1]; therapeutic (d7), Row 3 (3rd of 7 time points))?
A: The value was 1.95.

Q: What about the “PBMC Titers, group mean (Mean 2)” value ([1]; therapeutic (d7), Row 4 (4th of 7 time points)) of the same compound?
A: Its value is 2.46.

Q: What about the “PBMC Titers, group mean (Mean 2)” value ([1]; therapeutic (d7), Row 5 (5th of 7 time points)) of the same compound?
A: The value was 0.49.

Q: And the “PBMC Titers, group mean (Mean 2)” value ([1]; therapeutic (d7), Row 6 (6th of 7 time points))?
A: Its value is 0.3.

Q: And the “PBMC Titers, group mean (Mean 2)” value ([1]; therapeutic (d7), Row 7 (7th of 7 time points))?
A: The value was 0.

Q: What about the “effect on height of maximum virus load” value ([1]; treatment initiated at day 7 post-infection, maximum on day 10) of the same compound?
A: The value was “no significant effect on the height of maximum virus load”.

Q: What about the “PBMC Titers, Mean Diff, untreated vs. treated” value ([1]; untreated vs. prophylactic, Row 1 (1st of 7 time points)) of the same compound?
A: The value was 0.

Q: And the “PBMC Titers, Mean Diff, untreated vs. treated” value ([1]; untreated vs. prophylactic, Row 2 (2nd of 7 time points))?
A: The value was 0.1201.

Q: What about the “PBMC Titers, Mean Diff, untreated vs. treated” value ([1]; untreated vs. prophylactic, Row 3 (3rd of 7 time points)) of the same compound?
A: Its value is 2.622.

Q: What about the “PBMC Titers, Mean Diff, untreated vs. treated” value ([1]; untreated vs. prophylactic, Row 4 (4th of 7 time points)) of the same compound?
A: Its value is 1.541.

Q: What about the “PBMC Titers, Mean Diff, untreated vs. treated” value ([1]; untreated vs. prophylactic, Row 5 (5th of 7 time points)) of the same compound?
A: The value was 0.3677.

Q: What about the “PBMC Titers, Mean Diff, untreated vs. treated” value ([1]; untreated vs. prophylactic, Row 6 (6th of 7 time points)) of the same compound?
A: Its value is 0.1017.

Q: What about the “PBMC Titers, Mean Diff, untreated vs. treated” value ([1]; untreated vs. prophylactic, Row 7 (7th of 7 time points)) of the same compound?
A: The value was -0.3917.

Q: And the “PBMC Titers, Mean Diff, untreated vs. treated” value ([1]; untreated vs. therapeutic (d3), Row 1 (1st of 7 time points))?
A: Its value is 0.

Q: And the “PBMC Titers, Mean Diff, untreated vs. treated” value ([1]; untreated vs. therapeutic (d3), Row 2 (2nd of 7 time points))?
A: The value was -0.06733.

Q: What about the “PBMC Titers, Mean Diff, untreated vs. treated” value ([1]; untreated vs. therapeutic (d3), Row 3 (3rd of 7 time points)) of the same compound?
A: Its value is 2.195.

Q: What about the “PBMC Titers, Mean Diff, untreated vs. treated” value ([1]; untreated vs. therapeutic (d3), Row 4 (4th of 7 time points)) of the same compound?
A: Its value is 1.128.

Q: What about the “PBMC Titers, Mean Diff, untreated vs. treated” value ([1]; untreated vs. therapeutic (d3), Row 5 (5th of 7 time points)) of the same compound?
A: Its value is 0.2444.

Q: And the “PBMC Titers, Mean Diff, untreated vs. treated” value ([1]; untreated vs. therapeutic (d3), Row 6 (6th of 7 time points))?
A: Its value is 0.23.

Q: And the “PBMC Titers, Mean Diff, untreated vs. treated” value ([1]; untreated vs. therapeutic (d3), Row 7 (7th of 7 time points))?
A: The value was 0.

Q: What about the “PBMC Titers, Mean Diff, untreated vs. treated” value ([1]; untreated vs. therapeutic (d7), Row 1 (1st of 7 time points)) of the same compound?
A: Its value is 0.

Q: What about the “PBMC Titers, Mean Diff, untreated vs. treated” value ([1]; untreated vs. therapeutic (d7), Row 2 (2nd of 7 time points)) of the same compound?
A: Its value is -0.3527.

Q: What about the “PBMC Titers, Mean Diff, untreated vs. treated” value ([1]; untreated vs. therapeutic (d7), Row 3 (3rd of 7 time points)) of the same compound?
A: The value was 0.9232.

Q: What about the “PBMC Titers, Mean Diff, untreated vs. treated” value ([1]; untreated vs. therapeutic (d7), Row 4 (4th of 7 time points)) of the same compound?
A: Its value is -0.6175.

Q: What about the “PBMC Titers, Mean Diff, untreated vs. treated” value ([1]; untreated vs. therapeutic (d7), Row 5 (5th of 7 time points)) of the same compound?
A: The value was -0.1223.

Q: And the “PBMC Titers, Mean Diff, untreated vs. treated” value ([1]; untreated vs. therapeutic (d7), Row 6 (6th of 7 time points))?
A: Its value is -0.06996.

Q: What about the “PBMC Titers, Mean Diff, untreated vs. treated” value ([1]; untreated vs. therapeutic (d7), Row 7 (7th of 7 time points)) of the same compound?
A: The value was 0.

Q: And the Body weight changes [2]?
A: Its Body weight changes is “negligible”.
